From patent publication US9586914B2, “Modulators of C3a receptors” (THE UNIVERSITY OF QUEENSLAND, priority 2011, dated 2017)
Where two headings read alike, the source gives them in different places.

Tests used:
[1] = test system: IL1B, IL8, CCL3, EGR1, FOSB and TNF gene expression in HMDMs; test: Regulation of inflammatory genes in HMDM (qRT-PCR); type: cell-based, human; settings: 200 ng/mL pertussis toxin overnight, then 300 nM agonist for 30 minutes (not shown)
Description: Human monocyte-derived macrophages (HMDMS) were isolated from buffy coat of anonymous donors provided by the Australian Red Cross Blood Service at Kelvin Grove, Queensland, Australia. White blood cells were separated from other blood components into different layers using Ficoll-Paque Plus Density Centrifugation (GE Healthcare Bio-Science, Uppsala, Sweden) according to manufacturer's instruction. The isolated white blood cells were repeatedly washed with ice-cold water to remove contaminating erythrocytes. CD14^+ monocytes were positively selected from white blood cells using CD14^+ Macs Magnetic Beads (Miltenyi biotech, Auburn, Calif., USA) after successive magnetic sorting and washings. CD14^+ monocytes (1.5×10^6 cells/mL) were seeded in 10 mL of IMDM supplemented with 10% fetal calf serum (FBS), 10 U/mL streptomycin, 10 U/mL penicillin and 2 mmol L-glutamine (Invitrogen). To generate HMDMS, […] of recombinant human macrophage colony stimulating factor (M-CSF) (Peprotech Inc., rocky Hill, N.J., USA) was added for differentiation. HMDMS were maintained at 37° C. in a humidified incubator with 5% CO2 for a week to fully differentiate. At day 7, the adhered HMDMS were harvested by gentle scraping in saline solution.
HMDMs (2×10^6) in 2 mL of IMDM medium were transferred into each well on a 6-well plate. The cells were left to incubate for 6 h to allow adhesion before being serum starved in serum free IMDM to reduce background noise of the C3a treatment. In the time response experiment, cells were treated with 10 nM of C3a or agonist (compound 8 or 64) for 0.5, 1, 2 or 6 h. In concentration response experiments, cells were treated with 1, 10, 100 or 300 nM for 1 h. To prepare the samples for the microarray experiments, cells were treated with agonist at 100-300 nM for 30 min or 1 h in the absence or presence of the antagonist (e.g. SB-290157 or antagonists). […] Cells were washed with saline solution at the end of each treatment before the RNA extraction step.
Total RNA was extracted from cells using RNeasy Mini Plus kit (Qiagen, USA) according to the manufacturer's instructions. The concentration of the RNA was determined by measuring absorbance at λ=260/280 […] on a nanodrop spectrophotometer (Thermo Scientific), according to the manufacturer's instructions.
Total RNA (2-5 μg) was reverse transcribed with Superscript III (Invitrogen, USA) using random oligo dT primer. Reagents were incubated (50 min, 50° C.; then 10 min, 70° C.) in thermal cyclers (Bio-Rad) to complete the reaction, cDNA samples were stored at −20° C. until further use. All RNA work was performed on ice (4° C.) to prevent degradation of the RNA samples.
cDNA (0.5 μg) samples were prepared with 5 μL SYBR® Green PCR master mix (Applied Biosystems™, CA, USA), 2 μL relevant primers (2 μM) and 1 μL dH2O before being analysed using an ABI 7900HT Fast Real-Time PCR System (Applied Biosystems™, CA, USA) according to the manufacturer's specifications. Fluorescence data was collected during the extension phase (60° C.). The concentration response data for each sample was then normalised against the same data for control housekeeping gene, (18S) to quantify and generate gene expression data. All samples were done in at least duplicate. Primers were designed using the Primer-BLAST software (National Center for Biotechnology Information, USA). Primers contained, amplicons that cross exon-exon boundaries to prevent amplification of genomic DNA. […]

C3a receptor (C3aR) = biological target: T1, C3a receptor (C3aR) (Homo sapiens, UniProt Q16581); test: Competitive binding with [^125I]-C3a in HMDM; settings: HMDM
T1 construct: peripheral blood mononuclear cells were isolated from buffy coat (obtained from Australian Red Cross Blood Service, Kelvin Grove); endogenous in cells; host or cells: primary human monocyte-derived macrophages (HMDM) differentiated from CD14+ monocytes of donor buffy coat
T1 sequence (Q16581 1-482): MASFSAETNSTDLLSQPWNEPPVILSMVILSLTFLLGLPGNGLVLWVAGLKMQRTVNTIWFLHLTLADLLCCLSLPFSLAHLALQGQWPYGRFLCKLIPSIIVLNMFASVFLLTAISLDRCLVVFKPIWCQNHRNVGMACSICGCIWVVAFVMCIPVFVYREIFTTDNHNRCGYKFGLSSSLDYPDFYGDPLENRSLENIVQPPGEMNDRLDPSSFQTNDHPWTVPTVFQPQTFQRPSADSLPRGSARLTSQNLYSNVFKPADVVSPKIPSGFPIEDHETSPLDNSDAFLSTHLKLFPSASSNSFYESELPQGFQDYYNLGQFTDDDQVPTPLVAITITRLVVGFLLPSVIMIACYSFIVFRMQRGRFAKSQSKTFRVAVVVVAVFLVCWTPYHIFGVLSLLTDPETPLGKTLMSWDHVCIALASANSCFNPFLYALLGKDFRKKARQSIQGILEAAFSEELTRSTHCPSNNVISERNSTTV
Summary of the method: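 IC50 values are geometric means, with −log IC50 computed per experiment and given as arithmetic mean ± SE. Cells were CD14+ monocytes from buffy-coat PBMC, differentiated to macrophages and used on day 7. Unbound label was removed by GF/B filtration with 3 cold washes in 50 mM Tris-HCl pH 7.4.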

C3aR [2] = biological target: T2, C3aR (Homo sapiens, UniProt Q16581); test: Calcium mobilization assay in HMDM (agonist/antagonist activity); type: cell-based
T2 construct: peripheral blood mononuclear cells were isolated from buffy coat (obtained from Australian Red Cross Blood Service, Kelvin Grove); endogenous in cells; host or cells: primary human monocyte-derived macrophages (HMDM) differentiated from CD14+ monocytes of donor buffy coat
T2 sequence (Q16581 1-482): T1 sequence (Q16581 1-482)
Summary of the method: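 Human monocyte-derived macrophages, 5×10^4 cells/well, loaded 1 h at 37 °C with 4 μM Fluo-3 in HBSS/HEPES/probenecid buffer, pH 7.4. Agonist mode: calcium release read 300 s; antagonist mode: 900 s compound preincubation then agonist, read 300 s (ex 485/em 520 nm); compared with hC3a.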

C3aR [3] = biological target: T2, C3aR; test: Desensitization experiments (Ca^2+ efflux after hC3a desensitization); type: cell-based; settings: hC3a 3 μM first; second addition of 1 μM compound; HMDM
Protocol: Desensitization experiments were used to measure the selectivity of various ligands for C3aR, since this can help to clarify whether the non-peptidic ligands bind selectively to C3aR over other GPCRs that signal through intracellular calcium release.
The hC3a (3 μM) was administered to human monocyte derived macrophage cells, which produces an efflux of intracellular Ca^2+ that dissipates after 4-5 mins (FIGS. 4A and 4B). A second addition of 3 μM hC3a after 5 mins has no effect, due to desensitization of the receptor through either receptor (C3a receptor) phosphorylation or receptor internalization from the cell surface.

[4] = Table 6, competitive binding with [^125I]-C3a
[5] = Table 6, competitive binding with [^125I]-C3a, read-out: IC50 (converted)
[6] = Table 9, Ca^2+ mobilization, HMDM
[7] = quoted in text of Example 98, read-out: EC50

Row | Compound | Effect of pertussis toxin pre-treatment on gene induction by C3a or compounds 8 or 64 [1] | pIC50 ± SEM (C3a receptor (C3aR); [4]) | IC50 (C3a receptor (C3aR); [5]) | pEC50 ± SEM (C3aR [2]; [6]) | EC50 (C3aR [2]; Table 9, Ca^2+ mobilization, HMDM, read-out: EC50) | Ca^2+ efflux on addition after first desensitization with hC3a (selectivity for C3aR over other GPCRs) (C3aR [3]) | EC50 (C3aR [2]; [7]) | IC50 (C3a receptor (C3aR); Table 6, competitive binding with [^125I]-C3a, read-out: pIC50 ± SEM (converted)) | IC50 (C3a receptor (C3aR); Table 11, [^125I]-C3a, read-out: Receptor Binding Affinity IC50) | IC50 (C3a receptor (C3aR); Table 11, [^125I]-C3a, read-out: Receptor Binding Affinity pIC50 ± SE (converted)) | EC50 (C3aR [2]; Table 9, Ca^2+ mobilization, HMDM, read-out: pEC50 ± SEM (converted)) | EC50 (C3aR [2]; Table 11, Ca^2+ mobilisation, HMDM, read-out: Apparent Antagonist Activity EC50)
1 | pertussis toxin [reference compound] | ablated |  |  |  |  |  |  |  |  |  |  | 
2 | CC[C@H](C)[C@H](NC(=O)c1ccccc1Oc1ccccc1)c1nc(C(=O)N[C@@H](CCCNC(=N)N)C(=O)O)co1 [Compound 18, 2-phenoxy benzoic acid-isoleucine-oxazole-arginine-OH] |  | 7.26 ± 0.09 | 55 nM | 7.26 ± 0.08 | 54 nM | caused a second efflux of intracellular Ca^2+ |  |  |  |  |  | 
3 | CC[C@H](C)[C@H](NC(=O)OC(C)(C)C)c1nc(C(=O)N[C@@H](CCCNC(=N)N)C(=O)O)co1 [Compound 2] |  | 7.53 ± 0.10 | 30 nM | 7.57 ± 0.11 |  | did not produce calcium efflux | 27 nM |  |  |  |  | 
4 | CC[C@H](C)[C@H](NC(=O)CCC(=O)c1ccc(-c2ccccc2)cc1)c1nc(C(=O)N[C@@H](CCCNC(=N)N)C(=O)O)co1 [Compound 16, 4-(biphenyl-4-yl)-4-oxobutanoic acid-Isoleucine-Oxazole-Arginine-OH] |  | 6.81 ± 0.07 | 155 nM | 8.12 ± 0.21 |  | did not produce calcium efflux | 8 nM |  |  |  |  | 
5 | CC(C)C[C@H](NC(=O)OC(C)(C)C)c1nc(C(=O)NC(CCCNC(=N)N)C(=O)O)co1 (stereo partly drawn) [Compound 1, Boc-leucine oxazole-arginine-OH] |  |  | 20 nM |  |  | did not produce calcium efflux | 19 nM | 19.5 nM | 20 nM | 19.5 nM | 19.1 nM | 19 nM
